Counter-ions that a name gives are not always drawn. Like-named read-outs stand apart in the source and are kept apart here.
Experiments:
[1] = system: A/Puerto Rico/8/34 (H1N1; PR8); test: microbe, parasite or virus in culture; assay type: cell-based; details: Influenza A virus, read-out: EC50 against Influenza Virus PR8
[2] = system: MDCK cells; test: Fluorescein diacetate-based cell viability assay, mock-infected cells (cytotoxicity)
[3] = system: B/Lee/40 (Lee); test: microbe, parasite or virus in culture; assay type: cell-based, influenza B virus; details: unidentified influenza virus, MDCK, read-out: EC50 against Influenza Virus Lee
[4] = in vitro; details: dog
[5] = system: A/Hong Kong/8/68 (H3N2; HK); test: microbe, parasite or virus in culture; assay type: cell-based; details: Influenza A virus, read-out: EC50 against Influenza Virus HK
[6] = system: influenza A and B viruses (PR8, HK, Lee); test: Cytopathic effect assay, values given across the viral strains tested; assay type: cell-based; details: Influenza A virus
[7] = system: PR8 virus; test: microbe, parasite or virus in culture; assay type: cell-based, influenza A virus; details: for antiviral activity on exposure during viral adsorption: 0–1 h at 4 °C, compound 1 10 µM, EGCG 1 µM
[8] = biological target: NA (Influenza A virus, UniProt P03468); test: NA activity assay (NA-XTD kit) with purified PR8 virus; assay type: biochemical, influenza A virus PR8; details: maximum concentration of 30 µM
Method: An NA activity assay was performed by using the NA-XTD Influenza Neuraminidase assay kit (Applied Biosystems, Foster City, CA, USA) [25, 26]. The influenza A virus PR8 (2.8 × 10^3 PFU) was mixed with the same volume of compounds at 37 °C for 20 min. After an addition of NA-XTD substrate, the mixture was incubated at room temperature for 30 min. The luminescent signal was maximized by the addition of an NA-XTD accelerator according to the manufacturer’s instructions and read using a microplate luminometer (Centro LB960 system; Berthold Technologies, Bad Wildbad, Germany). Half maximum inhibitory concentrations (IC50s) were determined using GraphPad Prism 8.4.2.

[9] = biological target: influenza A viral polymerase (Influenza A virus, UniProt P03428+P03431+P03433); assay type: cell-based
[10] = system: PR8 virus; assay type: cell-based, influenza A virus
[11] = system: PR8 virus; details: 3 or 30 µM, 5 h post-infection
Method: For fluorescence microscopy, PR8 virus-infected MDCK cells (MOI, 3) seeded onto 4-well slides (8.5 × 10^4 cells per well) were treated with DMSO (delivery vehicle), compound 1, or RBV at 33 °C for 5 h. After fixing and permeabilization, viral NP was visualized using an anti-NP antibody (Santa Cruz Biotechnology, Santa Cruz, CA, USA), followed by an Alexa 488-conjugated goat anti-mouse IgG (Invitrogen) [10]. Cells were counterstained with a Vectashield mounting medium containing DAPI (Vector Laboratories, Burlingame, CA, USA). Images were captured under a Zeiss LSM 700 confocal microscope (Carl Zeiss, Thornwood, NY, USA).

[12] = system: MDCK cells; details: 2-day treatment, concentrations above 0.41 µM
[13] = system: PR8 virus; details: MDCK cells, subtoxic concentrations, 1 day
[14] = in vitro; details: dog; remark: listed apart in the source
[15] = A/Puerto Rico/8/34 (H1N1), MDCK cells
[16] = A/Hong Kong/8/68 (H3N2), MDCK cells
[17] = PR8, HK and Lee strains, MDCK cells, read-out: EC50 values, range across influenza A and B viruses

Row | Molecule | EC50 [1, 15] | EC50 [3] | CC50 at 3 days [4] | EC50 [5, 16] | other results
1 | COc1ccc2cc(-c3cc4c(cc3CCO)OCO4)[nH]c(=O)c2c1OC [Compound 20] | 29.8 µM | 15.6 µM | > 300 µM | 11.9 µM | cell death ([2]; 300 µM): approximately 30%
2 | O=c1[nH]c(-c2ccccc2)cc2ccccc12 [Compound 2, 3-phenylisoquinolone] | 45 µM | 88.1 µM | > 300 µM | 73.4 µM | 
3 | O=c1[nH]c(-c2ccccc2CO)cc2ccccc12 [Compound 4] | 52.4 µM | 17.2 µM | > 300 µM | 81.3 µM | 
4 | COc1ccc(-c2cc3cc(C)ccc3c(=O)[nH]2)cc1OC [Compound 11] | 32.3 µM | 74.8 µM | > 300 µM | 94.5 µM | 
5 | Cc1ccc2c(=O)[nH]c(-c3c(C)cccc3C)c(Br)c2c1 [Compound 14] | > 300 µM | > 300 µM | > 300 µM | > 300 µM | 
6 | COc1ccc(-c2[nH]c(=O)c3ccc(C)cc3c2Br)cc1OC [Compound 13] | 177 µM | > 300 µM | > 300 µM | 172 µM | 
7 | COc1cc2cc(-c3ccccc3O)[nH]c(=O)c2cc1OC [Compound 22] | > 300 µM | > 300 µM | > 300 µM | > 300 µM | 
8 | Cn1c(-c2ccccc2C=O)cc2ccccc2c1=O [Compound 15] | > 300 µM | > 300 µM | > 300 µM | > 300 µM | 
9 | NC12CC3CC(CC(C3)C1)C2 [AMT, amantadine hydrochloride, reference compound] | > 300 µM | > 300 µM |  | 1.6 µM | CC50 at 3 days ([4]; mock-infected MDCK cells): > 300 µM
10 | Cc1ccc(-c2cc3c(N(C)C)cccc3c(=O)[nH]2)cc1 [Compound 7] | > 300 µM | > 300 µM | > 300 µM | > 300 µM | 
11 | CCc1cc2c(cc1-c1cc3ccc(OC)c(O)c3c(=O)n1C)OCO2 [Compound 17] | 36.8 µM | > 109 µM | 109 µM | 5.8 µM | EC50 ([6]; influenza A strains only (PR8, HK), read-out: EC50 values, range against influenza A viral strains): 5.8 to 36.8 µM
12 | Cc1cccc(-c2cc3c(N(C)C)cccc3c(=O)[nH]2)c1 [Compound 6] | > 300 µM | 58.7 µM | > 300 µM | > 300 µM | 
13 | CN(C)c1cccc2c(=O)[nH]c(-c3ccc(Cl)cc3)cc12 [Compound 8] | > 300 µM | > 300 µM | > 300 µM | > 300 µM | 
14 | Cc1ccc2c(=O)[nH]c(-c3c(C)cccc3C)cc2c1 [Compound 12] | > 300 µM | > 300 µM | > 300 µM | > 300 µM | 
15 | (-)-epigallocatechin-3-gallate [EGCG, reference compound] |  |  |  |  | antiviral activity on exposure during viral adsorption [7]: blocked PR8 infection completely
16 | COc1cc2cc(-c3ccccc3)[nH]c(=O)c2cc1OC [Compound 21, 6,7-dimethoxy-3-phenylisoquinolone] | 18.5 µM | 9.9 µM | > 300 µM | 10.9 µM | inhibitory effect on NA activity [8]: no inhibitory effect; viral polymerase activity [9]: efficiently suppressed viral polymerase activity; progeny virus production (plaque assay) [10]: inhibited progeny virus production into MDCK culture supernatants in a dose-dependent manner; EC50 [6, 17]: 9.9 to 18.5 µM
17 | Cn1c(-c2ccccc2O)c(C=O)c2ccccc2c1=O [Compound 16] | > 148 µM | > 148 µM | 148 µM | > 148 µM | 
18 | COc1ccccc1-c1cc2ccccc2c(=O)[nH]1 [Compound 5] | > 120 µM | 1.4 µM | 120 µM | > 120 µM | 
19 | COc1cc2cc(-c3cccc(C)c3)[nH]c(=O)c2cc1OC [Compound 23] | > 300 µM | > 300 µM | > 300 µM | > 300 µM | 
20 | COc1ccc2cc(-c3cc4c(cc3CCO)OCO4)n(C)c(=O)c2c1OC [Compound 19] | 59.9 µM | 22.2 µM | > 300 µM | 46.2 µM | EC50 [6, 17]: 22.2 to 59.9 µM
21 | O=c1[nH]c(-c2ccccc2O)cc2ccccc12 [Compound 3] | 57 µM | 65 µM | > 300 µM | 103 µM | 
22 | CCC(CC)O[C@@H]1C=C(C(=O)O)C[C@H](N)[C@H]1NC(C)=O [OSV-C, oseltamivir carboxylate, reference compound] | 0.05 µM | 0.37 µM | > 300 µM | 0.03 µM | 
23 | NC(=O)c1ncn([C@@H]2O[C@H](CO)[C@@H](O)[C@H]2O)n1 [RBV, ribavirin, reference compound] |  | 48.4 µM |  |  | EC50 ([1]; MDCK): 25 µM; CC50 at 3 days ([4]; mock-infected MDCK cells): > 300 µM; EC50 ([5]; H3N2, MDCK): 43.8 µM
24 | CN(C)c1cccc2c(=O)[nH]c(-c3ccc(Br)cc3)cc12 [Compound 9] | > 300 µM | > 300 µM | > 300 µM | > 300 µM | 
25 | C=Cc1cc2c(cc1-c1cc3ccc(OC)c(OC)c3c(=O)n1C)OCO2 [Compound 18] | 2.8 µM | 1.1 µM | 40.3 µM | 1.4 µM | 
26 | CCc1cc2c(cc1-c1cc3ccc(OC)c(OC)c3c(=O)n1C)OCO2 [Compound 1, 3-(6-ethylbenzo[d][1,3]dioxol-5-yl)-7,8-dimethoxy-2-methylisoquinolin-1(2H)] | 0.2 µM | 0.6 µM | 39 µM | 0.3 µM | NP-positive cells (confocal microscopy) [11]: few or no NP-positive cells; cell death ([2]; incubation for 2 days, concentrations > 0.41 µM, fluorescein diacetate): > 40%; antiviral activity on exposure during viral adsorption [7]: failed to induce antiviral activity; inhibition at 10 µM ([7]; Influenza A virus, PR8, 7 h, read-out: inhibition of plaque formation): > 80%; viral polymerase activity [9]: suppressed viral RNA replication/transcription; cell death (MTT) [12]: > 40%; viral protein expression (Western blot) [13]: reducing the expression of viral proteins, including NP and HA; viability at 1 day, 11.11 µM [14]: 80%; progeny virus production (plaque assay) [10]: reducing the number of viral progeny released into the culture supernatant; EC50 [6, 17]: 0.2 to 0.6 µM

Source: paper PMC8308780, “Antiviral Activity of Isoquinolone Derivatives against Influenza Viruses and Their Cytotoxicity” (Pharmaceuticals, 2021)
